Results: PMC2628309 (Journal of the American Chemical Society, 2008)
Like-named read-outs stand apart in the source and are kept apart here.

Key:
Src tyrosine kinase [1] = molecular target: T1, Src tyrosine kinase (Homo sapiens, UniProt P12931); assay: Src kinase inhibition; assay type: biochemical
SH2 domain = conditions: validated SH2 domain ligand; cited from earlier work
Src tyrosine kinase [2] = molecular target: T1, Src tyrosine kinase; conditions: cited from earlier work
[3] = Table 1, Src inhibitors, pre-photolysis

Row | Substance | IC50 (Src tyrosine kinase [1]; [3]) [nM] | also measured
1 | Ba-EEEIFGE-III-Dap(Hna)-βA3-pY-III-EIEX [Compound 9] | 7500 | –
2 | Ba-EEEIFGE-II-Dap(Hna)-βA3-pYEEIEX [Compound 7] | 220 ± 10 | –
3 | Ba-EEEIFGEF-Dap(Hna)-βA-II-βA-pYEEIEX [Compound 5] | 38 ± 4 | –
4 | Ac-pTyrGluGluIle-amide | – | Kd (SH2 domain): 1000 to 5000 nM
5 | Ba-EEEIFGEF-Dap(Hna)-βA3-pYEEIEX [Compound 1] | – | IC50 (Src tyrosine kinase [2]): 36 ± 2 nM; Ki (Src tyrosine kinase [2]): 26 ± 4 nM
6 | Ba-EEEIFGEF-Dap(Hna)-βA-III-βA-pY-III-EIEX [Compound 10] | 1600 | –
7 | Ba-EEEIFGEF-Dap(Hna)-βA-I-βA-pYEEIEX [Compound 4] | 115 ± 9 | –
8 | Ba-EEEIFGEF-Dap(Hna)C-III-βA-pYEEIE-NH2 [Compound 11] | 56 ± 4 | –
9 | Ba-EEEIFGEF-Dap(Hna)-βA-III-βA-pYEEIEX [Compound 6] | 18 ± 5 | Src kinase activity in the presence of inhibitor (Src tyrosine kinase [1]; 1.9 μM inhibitor, no irradiation): completely blocked; IC50 (Src tyrosine kinase [1]; in the presence of 320 μM Ac-pTyrGluGluIle-amide (SH2 ligand competition)): 325 ± 60 nM
